Values of other authors in publication PMC3309614 (Journal of the American Chemical Society, 2011).

Tested on: kinesin-5 L214A
Details: L214A mutation in allosteric binding site

S-Trityl-L-cyteine [STLC]
effect of L214A mutation on inhibition: known to suppress STLC inhibition
